What all share (experiment): NCI-60 cell line screen, 48 h
The test system of test [1] is SNB-19 CNS.
Test [2] has as its system KM12 colon.
Test [3] concerns HCT-116 colon.
Test [4] relates to ACHN renal.
In test [5] the test system is SR leukemia.
Test [6] deals with NCI/ADR-RES ovarian.
Test [7] deals with A498 renal.
For test [8], the system named is U251 CNS.
Test [9] concerns A549 NSCLC.
For test [10], the system named is COLO 205 colon.
Test [11] deals with MDA-MB-435.
Test [12] relates to BT-549 breast.
For test [13], the system named is CCRF-CEM leukemia.
The subject of test [14] is 786-0 renal.
For test [15], the system named is NCI-H460 lung.
In test [16] the test system is NCI-H23 lung.
Test [17] relates to NCI-H226 lung.
In test [18] the test system is LOX IMVI melanoma.
Test [19] concerns SW-620 colon.
Test [20] relates to RPMI-8226 leukemia.

The values below come from PubChem BioAssay (NCI).

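Five concentrations, 48 hours, 96-well plates. TGI: concentration producing complete growth inhibition.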

For `O=c1[nH][nH]c(=S)c(=O)[nH]1`, the TGI in [1], in test [2], in [3], in test [4], in [5] and in [6] was greater than 100 µM throughout. The TGI in [7], in [8], in test [9], in test [10], in test [11] and in test [12] was greater than 100 µM in each case. For the same compound, the TGI in test [13], in [14], in test [15], in test [16], in [17] and in test [18] was greater than 100 µM in each case. Further, the TGI in test [19] and in test [20] was greater than 100 µM in each case.
With `Nc1nc(Cl)cc(NCC2(CO)CCC(OCc3ccccc3)C2)n1` (stereo not given), the TGI in test [1] is greater than 100 µM; in test [2] it was 94.6 µM; in test [3], greater than 100 µM; in [4], greater than 100 µM; in [5], 80.2 µM; in test [6], 25 µM. In addition, the TGI in [7] is 44.4 µM; in test [8], greater than 100 µM; in [9], greater than 100 µM; in test [10], 62.7 µM; in [11], 39.9 µM; in test [12] it was 80.1 µM. Besides, the TGI was greater than 100 µM in test [13]; greater than 100 µM in test [14]; greater than 100 µM in [15]; 43.8 µM in test [16]; 84.1 µM in test [17]; 46.4 µM in [18]. The TGI in test [19] and in test [20] was greater than 100 µM throughout.
For the compound `c1ccc(-c2cc(-c3cc(-c4ccccc4)no3)on2)cc1`, the TGI in test [1] is greater than 100 µM; in [2] it was greater than 100 µM; in test [3], greater than 100 µM; in test [4], greater than 100 µM; in [5], 31.3 µM; in [6] it was greater than 100 µM. The TGI in [7], in test [8], in test [9], in test [10], in test [11] and in [12] was greater than 100 µM throughout. For the same compound, the TGI in [13] is 78.8 µM; in test [14] it was greater than 100 µM; in test [15] it was greater than 100 µM; in test [16] it was greater than 100 µM; in [17], greater than 100 µM; in test [18] it was greater than 100 µM. The TGI in [19] and in [20] was greater than 100 µM throughout.
Consider `CC(=O)O[C@H]1C(=O)[C@@]2(C)[C@H]([C@H](OC(=O)c3ccncc3)[C@]3(O)C[C@H](OC(=O)[C@H](O)[C@@H](NC(=O)c4ccccc4)c4ccccc4)C(C)=C1C3(C)C)[C@]1(OC(C)=O)CO[C@@H]1C[C@@H]2O`, for which the TGI in [1] was greater than 25 µM; in [2], greater than 25 µM; in test [3], greater than 11.1 µM; in test [4], greater than 25 µM; in test [5], greater than 25 µM; in test [6], greater than 25 µM. The TGI in test [7] was greater than 25 µM; in [8] it was greater than 23.3 µM; in test [9], greater than 25 µM; in test [10], greater than 20.1 µM; in [11], 1.96 µM; in test [12], greater than 25 µM. Further, the TGI in test [13] was 10.7 µM; in test [14] it was greater than 25 µM; in test [15] it was greater than 25 µM; in test [16] it was greater than 25 µM; in test [17], greater than 25 µM; in test [18], greater than 25 µM. Moreover, the TGI was greater than 25 µM in [19] and 6.5 µM in test [20].
With `Cc1ccc2nc(Cl)c(/C=N/N3C(=O)/C(=C/Cc4ccco4)N=C3c3ccccc3)cc2c1`, the TGI is greater than 90.9 µM in [1]; greater than 93.6 µM in test [2]; 39.3 µM in test [3]; greater than 100 µM in test [4]; greater than 100 µM in test [5]; greater than 90.5 µM in [6]. For the same compound, the TGI was greater than 100 µM in test [7]; greater than 100 µM in test [8]; greater than 93.5 µM in [9]; greater than 100 µM in test [10]; 5.29 µM in test [11]; greater than 90.9 µM in [12]. The TGI in test [13] is greater than 100 µM; in test [14], 47.3 µM; in test [15], 75.9 µM; in test [16], greater than 84.5 µM; in [17] it was greater than 100 µM; in test [18] it was greater than 69.3 µM. For the same compound, the figures for the TGI in [19] and in test [20] were greater than 100 µM and 61.8 µM, respectively.
As to `Cc1c(C)c2ccc(O)cc2[nH]c1=O`, the TGI in test [1], in test [2], in [3], in [4], in test [5] and in test [6] was greater than 100 µM throughout. For the same compound, the TGI in test [7], in [8], in test [9], in test [10], in test [11] and in test [12] was greater than 100 µM throughout. Besides, the TGI in test [13], in test [14], in test [15], in test [16], in [17] and in test [18] was greater than 100 µM in each case. Also, the TGI in test [19] and in test [20] was greater than 100 µM each time.
